{
  "source": "paper PMC10239507",
  "about": "“Development of allosteric and selective CDK2 inhibitors for contraception with negative cooperativity to cyclin binding” (Nature Communications, 2023)",
  "test_in_all_cases": "biochemical",
  "key": {"[1]": {"target": "T1, 371 kinases (kinase named in each endpoint) (Homo sapiens, UniProt Q8IVT5)", "T1 construct": "purchased Reaction Biology", "conditions": "KSR1"}, "[2]": {"target": "T2, 371 kinases (kinase named in each endpoint) (Homo sapiens, UniProt Q9BZL6)", "T2 construct": "purchased Reaction Biology", "conditions": "PKD2/PRKD2"}, "[3]": {"target": "T3, 371 kinases (kinase named in each endpoint) (Homo sapiens, UniProt P11362)", "T3 construct": "purchased Reaction Biology", "conditions": "FGFR1"}, "[4]": {"target": "T4, 371 kinases (kinase named in each endpoint) (Homo sapiens, UniProt Q96PF2)", "T4 construct": "purchased Reaction Biology", "conditions": "TSSK2"}, "[5]": {"target": "T5, 371 kinases (kinase named in each endpoint) (Homo sapiens, UniProt P29323)", "T5 construct": "purchased Reaction Biology", "conditions": "EPHB2"}, "[6]": {"target": "T6, 371 kinases (kinase named in each endpoint) (Homo sapiens, UniProt Q9HBY8)", "T6 construct": "purchased Reaction Biology", "T6 sequence (Q9HBY8 whole entry)": "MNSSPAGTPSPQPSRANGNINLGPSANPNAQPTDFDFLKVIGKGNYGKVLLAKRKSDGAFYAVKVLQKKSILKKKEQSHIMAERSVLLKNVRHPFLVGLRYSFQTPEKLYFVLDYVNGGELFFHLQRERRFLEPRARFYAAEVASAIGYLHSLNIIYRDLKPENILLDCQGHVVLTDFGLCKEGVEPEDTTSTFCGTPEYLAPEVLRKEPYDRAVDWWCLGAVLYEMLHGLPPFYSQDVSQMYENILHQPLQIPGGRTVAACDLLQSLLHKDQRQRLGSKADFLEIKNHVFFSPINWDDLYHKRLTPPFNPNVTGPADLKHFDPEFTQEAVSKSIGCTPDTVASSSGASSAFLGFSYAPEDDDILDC", "conditions": "SGK2"}, "[7]": {"target": "T7, 371 kinases (kinase named in each endpoint) (Homo sapiens, UniProt Q13164)", "T7 construct": "purchased Reaction Biology", "conditions": "ERK5/MAPK7"}, "[8]": {"target": "T8, 371 kinases (kinase named in each endpoint) (Homo sapiens, UniProt P49137)", "T8 construct": "purchased Reaction Biology", "T8 sequence (P49137 whole entry)": "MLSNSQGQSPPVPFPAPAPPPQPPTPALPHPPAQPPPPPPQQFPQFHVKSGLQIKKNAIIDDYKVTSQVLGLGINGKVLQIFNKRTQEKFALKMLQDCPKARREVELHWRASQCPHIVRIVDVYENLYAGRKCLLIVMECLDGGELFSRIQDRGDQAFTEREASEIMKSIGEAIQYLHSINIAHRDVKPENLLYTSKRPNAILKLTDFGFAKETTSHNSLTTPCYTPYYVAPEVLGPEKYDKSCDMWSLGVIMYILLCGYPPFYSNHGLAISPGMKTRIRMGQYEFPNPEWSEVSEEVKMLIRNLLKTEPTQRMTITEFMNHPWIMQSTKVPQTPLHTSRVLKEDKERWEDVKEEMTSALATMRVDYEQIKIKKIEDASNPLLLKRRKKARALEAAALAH", "conditions": "MAPKAPK2"}, "[9]": {"target": "T9, 371 kinases (kinase named in each endpoint) (Homo sapiens, UniProt Q02779)", "T9 construct": "purchased Reaction Biology", "conditions": "MLK2/MAP3K10"}, "[10]": {"target": "T10, 371 kinases (kinase named in each endpoint) (Homo sapiens, UniProt O15111)", "T10 construct": "purchased Reaction Biology", "conditions": "IKKA/CHUK"}, "[11]": {"target": "T11, 371 kinases (kinase named in each endpoint) (Homo sapiens, UniProt P36897)", "T11 construct": "purchased Reaction Biology", "T11 sequence (P36897 34-503)": "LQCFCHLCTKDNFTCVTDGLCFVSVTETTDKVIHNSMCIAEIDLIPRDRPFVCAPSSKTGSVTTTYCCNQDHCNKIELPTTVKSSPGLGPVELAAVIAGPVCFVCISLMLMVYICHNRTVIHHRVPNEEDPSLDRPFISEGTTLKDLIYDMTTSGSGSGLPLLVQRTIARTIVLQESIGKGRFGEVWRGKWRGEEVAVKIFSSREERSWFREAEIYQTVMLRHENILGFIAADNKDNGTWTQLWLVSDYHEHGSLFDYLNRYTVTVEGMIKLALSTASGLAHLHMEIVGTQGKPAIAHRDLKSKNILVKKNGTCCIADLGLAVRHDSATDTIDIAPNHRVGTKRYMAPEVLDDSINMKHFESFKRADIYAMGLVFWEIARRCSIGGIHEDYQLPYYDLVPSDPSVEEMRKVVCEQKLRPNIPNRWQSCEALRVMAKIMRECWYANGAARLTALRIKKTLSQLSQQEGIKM", "conditions": "ALK5/TGFBR1"}, "[12]": {"target": "T12, 371 kinases (kinase named in each endpoint) (Homo sapiens, UniProt Q15208)", "T12 construct": "purchased Reaction Biology", "conditions": "STK38/NDR1"}, "[13]": {"target": "T13, 371 kinases (kinase named in each endpoint) (Homo sapiens, UniProt P25098)", "T13 construct": "purchased Reaction Biology", "T13 sequence (P25098 whole entry)": "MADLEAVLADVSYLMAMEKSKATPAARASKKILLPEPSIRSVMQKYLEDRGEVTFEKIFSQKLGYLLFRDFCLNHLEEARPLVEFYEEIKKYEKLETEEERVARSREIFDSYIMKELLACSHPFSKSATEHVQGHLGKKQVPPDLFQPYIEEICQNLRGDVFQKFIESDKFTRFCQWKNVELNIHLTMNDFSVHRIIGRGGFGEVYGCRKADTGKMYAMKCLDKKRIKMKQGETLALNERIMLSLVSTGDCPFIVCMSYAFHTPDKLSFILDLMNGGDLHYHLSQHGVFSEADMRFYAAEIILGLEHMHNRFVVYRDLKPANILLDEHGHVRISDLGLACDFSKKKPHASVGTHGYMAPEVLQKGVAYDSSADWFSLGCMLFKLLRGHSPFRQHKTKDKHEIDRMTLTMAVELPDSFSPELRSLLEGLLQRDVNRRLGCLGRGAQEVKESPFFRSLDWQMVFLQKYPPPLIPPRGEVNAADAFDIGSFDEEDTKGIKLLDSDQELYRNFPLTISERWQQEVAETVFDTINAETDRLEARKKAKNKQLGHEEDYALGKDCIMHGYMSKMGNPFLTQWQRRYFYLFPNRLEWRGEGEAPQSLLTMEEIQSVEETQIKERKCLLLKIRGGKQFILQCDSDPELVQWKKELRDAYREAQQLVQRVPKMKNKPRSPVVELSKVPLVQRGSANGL", "conditions": "GRK2"}, "[14]": {"target": "T14, 371 kinases (kinase named in each endpoint) (Homo sapiens, UniProt P49759)", "T14 construct": "purchased Reaction Biology", "conditions": "CLK1"}, "[15]": {"target": "T15, 371 kinases (kinase named in each endpoint) (Homo sapiens, UniProt O14965)", "T15 construct": "purchased Reaction Biology", "conditions": "AURORA A"}, "[16]": {"target": "T16, 371 kinases (kinase named in each endpoint) (Homo sapiens, UniProt Q9HCP0)", "T16 construct": "purchased Reaction Biology", "conditions": "CK1G1"}, "[17]": {"target": "T17, 371 kinases (kinase named in each endpoint) (Homo sapiens, UniProt Q13557)", "T17 construct": "purchased Reaction Biology", "conditions": "CAMK2D"}, "[18]": {"target": "T18, 371 kinases (kinase named in each endpoint) (Homo sapiens, UniProt Q02750)", "T18 construct": "purchased Reaction Biology", "T18 sequence (Q02750 whole entry)": "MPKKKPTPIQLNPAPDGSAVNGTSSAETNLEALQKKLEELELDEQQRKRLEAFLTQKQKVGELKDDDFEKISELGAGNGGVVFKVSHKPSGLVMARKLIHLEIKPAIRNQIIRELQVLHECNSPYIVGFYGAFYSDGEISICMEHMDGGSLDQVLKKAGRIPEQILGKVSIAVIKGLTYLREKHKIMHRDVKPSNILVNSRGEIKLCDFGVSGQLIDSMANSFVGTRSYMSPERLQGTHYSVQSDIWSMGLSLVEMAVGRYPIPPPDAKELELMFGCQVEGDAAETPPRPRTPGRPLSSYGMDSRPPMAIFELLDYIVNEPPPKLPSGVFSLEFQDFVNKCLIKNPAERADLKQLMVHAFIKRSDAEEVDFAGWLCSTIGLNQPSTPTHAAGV", "conditions": "MEK1"}, "[19]": {"target": "T19, 371 kinases (kinase named in each endpoint) (Homo sapiens, UniProt P45984)", "T19 construct": "purchased Reaction Biology", "conditions": "JNK2"}, "[20]": {"target": "T20, 371 kinases (kinase named in each endpoint) (Homo sapiens, UniProt Q8WTQ7)", "T20 construct": "purchased Reaction Biology", "conditions": "GRK7"}, "[21]": {"target": "T21, 371 kinases (kinase named in each endpoint) (Homo sapiens, UniProt Q9UQM7)", "T21 construct": "purchased Reaction Biology", "conditions": "CAMK2A"}, "[22]": {"target": "T22, 371 kinases (kinase named in each endpoint) (Homo sapiens, UniProt Q9BYP7)", "T22 construct": "purchased Reaction Biology", "conditions": "WNK3"}, "[23]": {"target": "T23, 371 kinases (kinase named in each endpoint) (Homo sapiens, UniProt Q8N568)", "T23 construct": "purchased Reaction Biology", "conditions": "DCAMKL2"}, "[24]": {"target": "T24, 371 kinases (kinase named in each endpoint) (Homo sapiens, UniProt Q9P286)", "T24 construct": "purchased Reaction Biology", "conditions": "PAK5"}, "[25]": {"target": "T25, 371 kinases (kinase named in each endpoint) (Homo sapiens, UniProt Q15375)", "T25 construct": "purchased Reaction Biology", "conditions": "EPHA7"}, "[26]": {"target": "T26, 371 kinases (kinase named in each endpoint) (Homo sapiens, UniProt P54756)", "T26 construct": "purchased Reaction Biology", "conditions": "EPHA5"}, "[27]": {"target": "T27, 371 kinases (kinase named in each endpoint) (Homo sapiens, UniProt P53667)", "T27 construct": "purchased Reaction Biology", "T27 sequence (P53667 whole entry)": "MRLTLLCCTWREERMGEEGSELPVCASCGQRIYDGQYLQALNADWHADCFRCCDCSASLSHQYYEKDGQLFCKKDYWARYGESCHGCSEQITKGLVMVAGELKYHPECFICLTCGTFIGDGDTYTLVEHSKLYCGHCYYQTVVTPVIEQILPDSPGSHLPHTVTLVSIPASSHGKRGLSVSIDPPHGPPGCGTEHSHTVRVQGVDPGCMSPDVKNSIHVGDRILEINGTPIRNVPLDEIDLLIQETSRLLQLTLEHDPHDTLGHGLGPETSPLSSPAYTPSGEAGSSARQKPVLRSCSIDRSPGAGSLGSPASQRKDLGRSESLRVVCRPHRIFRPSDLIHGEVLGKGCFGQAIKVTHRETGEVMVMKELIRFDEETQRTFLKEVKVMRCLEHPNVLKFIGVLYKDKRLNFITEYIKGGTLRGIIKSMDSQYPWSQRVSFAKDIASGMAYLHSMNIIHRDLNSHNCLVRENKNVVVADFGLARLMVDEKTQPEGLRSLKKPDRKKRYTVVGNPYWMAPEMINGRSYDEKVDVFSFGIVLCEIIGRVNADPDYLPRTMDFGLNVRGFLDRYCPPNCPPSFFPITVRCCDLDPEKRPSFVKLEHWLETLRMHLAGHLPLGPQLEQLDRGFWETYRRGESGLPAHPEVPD", "conditions": "LIMK1"}, "[28]": {"target": "T28, 371 kinases (kinase named in each endpoint) (Homo sapiens, UniProt P31749)", "T28 construct": "purchased Reaction Biology", "T28 sequence (P31749 whole entry)": "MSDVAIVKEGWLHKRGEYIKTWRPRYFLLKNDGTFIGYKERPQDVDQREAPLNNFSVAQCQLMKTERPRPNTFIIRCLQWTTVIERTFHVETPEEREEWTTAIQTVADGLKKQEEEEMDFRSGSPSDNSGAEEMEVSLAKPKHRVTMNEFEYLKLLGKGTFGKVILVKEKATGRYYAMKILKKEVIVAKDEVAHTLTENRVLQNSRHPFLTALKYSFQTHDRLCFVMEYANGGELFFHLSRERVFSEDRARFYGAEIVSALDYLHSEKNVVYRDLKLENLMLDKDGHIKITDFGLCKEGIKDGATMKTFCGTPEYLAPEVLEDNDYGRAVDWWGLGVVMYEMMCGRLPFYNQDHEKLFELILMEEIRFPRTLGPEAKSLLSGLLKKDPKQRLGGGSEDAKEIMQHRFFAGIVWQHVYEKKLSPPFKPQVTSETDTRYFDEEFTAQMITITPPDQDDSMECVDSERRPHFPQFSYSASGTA", "conditions": "AKT1"}, "[29]": {"target": "T29, 371 kinases (kinase named in each endpoint) (Homo sapiens, UniProt Q9HAZ1)", "T29 construct": "purchased Reaction Biology", "T29 sequence (Q9HAZ1 whole entry)": "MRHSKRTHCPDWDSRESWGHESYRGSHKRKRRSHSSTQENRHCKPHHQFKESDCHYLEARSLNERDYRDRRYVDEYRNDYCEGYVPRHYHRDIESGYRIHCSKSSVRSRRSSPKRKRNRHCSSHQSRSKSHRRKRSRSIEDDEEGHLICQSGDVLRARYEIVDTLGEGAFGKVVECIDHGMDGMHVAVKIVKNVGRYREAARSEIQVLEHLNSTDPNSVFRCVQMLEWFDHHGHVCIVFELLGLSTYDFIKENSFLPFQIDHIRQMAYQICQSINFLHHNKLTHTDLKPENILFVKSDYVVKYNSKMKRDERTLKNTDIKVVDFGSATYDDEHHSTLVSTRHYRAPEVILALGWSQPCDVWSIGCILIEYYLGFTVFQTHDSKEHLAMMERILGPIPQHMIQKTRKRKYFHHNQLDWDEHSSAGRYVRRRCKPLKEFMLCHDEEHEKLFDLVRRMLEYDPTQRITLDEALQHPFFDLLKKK", "conditions": "CLK4"}, "[30]": {"target": "T30, 371 kinases (kinase named in each endpoint) (Homo sapiens, UniProt Q9NRH2)", "T30 construct": "purchased Reaction Biology", "conditions": "SNRK"}, "[31]": {"target": "T31, 371 kinases (kinase named in each endpoint) (Homo sapiens, UniProt P50750)", "T31 construct": "purchased Reaction Biology", "T31 sequence (P50750 whole entry)": "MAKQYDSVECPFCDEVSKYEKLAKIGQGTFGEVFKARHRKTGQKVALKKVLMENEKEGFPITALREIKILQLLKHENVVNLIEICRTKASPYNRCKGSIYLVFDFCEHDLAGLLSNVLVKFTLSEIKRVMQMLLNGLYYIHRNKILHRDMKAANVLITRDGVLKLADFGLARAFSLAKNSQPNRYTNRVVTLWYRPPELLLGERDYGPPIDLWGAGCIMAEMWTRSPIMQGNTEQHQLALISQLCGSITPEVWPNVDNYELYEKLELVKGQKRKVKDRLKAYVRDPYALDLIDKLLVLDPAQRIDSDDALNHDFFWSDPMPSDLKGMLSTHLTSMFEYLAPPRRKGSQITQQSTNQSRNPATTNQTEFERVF"}, "[32]": {"target": "T32, 371 kinases (kinase named in each endpoint) (Homo sapiens, UniProt O75914)", "T32 construct": "purchased Reaction Biology", "conditions": "PAK3"}, "[33]": {"target": "T33, 371 kinases (kinase named in each endpoint) (Homo sapiens, UniProt P36896)", "T33 construct": "purchased Reaction Biology", "T33 sequence (P36896 24-505)": "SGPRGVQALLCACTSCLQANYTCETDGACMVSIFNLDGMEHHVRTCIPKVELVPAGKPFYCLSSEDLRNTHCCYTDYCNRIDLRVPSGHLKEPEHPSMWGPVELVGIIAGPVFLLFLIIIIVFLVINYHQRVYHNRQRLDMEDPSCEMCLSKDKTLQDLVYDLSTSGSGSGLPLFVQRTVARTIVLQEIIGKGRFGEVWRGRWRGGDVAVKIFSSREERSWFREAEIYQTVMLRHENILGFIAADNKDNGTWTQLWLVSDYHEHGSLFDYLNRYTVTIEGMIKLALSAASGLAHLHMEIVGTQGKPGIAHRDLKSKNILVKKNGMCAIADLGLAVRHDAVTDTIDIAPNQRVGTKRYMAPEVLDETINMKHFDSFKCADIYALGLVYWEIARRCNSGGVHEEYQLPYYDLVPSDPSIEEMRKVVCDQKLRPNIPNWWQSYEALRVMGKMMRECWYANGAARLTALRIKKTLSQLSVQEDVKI", "conditions": "ALK4/ACVR1B"}, "[34]": {"target": "T34, 371 kinases (kinase named in each endpoint) (Homo sapiens, UniProt O00238)", "T34 construct": "purchased Reaction Biology", "conditions": "ALK6/BMPR1B"}, "[35]": {"target": "T35, 371 kinases (kinase named in each endpoint) (Homo sapiens, UniProt P06213)", "T35 construct": "purchased Reaction Biology", "conditions": "IR"}, "[36]": {"target": "T36, 371 kinases (kinase named in each endpoint) (Homo sapiens, UniProt P80192)", "T36 construct": "purchased Reaction Biology", "conditions": "MLK1/MAP3K9"}},
  "data": [
    {"molecule": "O=C(O)c1cc(C(F)(F)F)ccc1NCCc1c[nH]c2cc(Br)ccc12", "note": "[Compound 5, 2-((2-(6-Bromo-1H-indol-3-yl)ethyl)amino)−5-(trifluoromethyl)benzoic Acid]", "values": [
      {"measurement": "activity at 10 µM", "setting": "[1]", "value": "92.9 ± 2.5", "unit": "%"},
      {"measurement": "activity at 10 µM", "setting": "[2]", "value": "84.1 ± 0.4", "unit": "%"},
      {"measurement": "activity at 10 µM", "setting": "[3]", "value": "102.6 ± 0.3", "unit": "%"},
      {"measurement": "activity at 10 µM", "setting": "[4]", "value": "79.9 ± 2.4", "unit": "%"},
      {"measurement": "activity at 10 µM", "setting": "[5]", "value": 89.8, "unit": "%"},
      {"measurement": "activity at 10 µM", "setting": "[6]", "value": "63.9 ± 2", "unit": "%"},
      {"measurement": "activity at 10 µM", "setting": "[7]", "value": "121 ± 3", "unit": "%"},
      {"measurement": "activity at 10 µM", "setting": "[8]", "value": "95.2 ± 1.8", "unit": "%"},
      {"measurement": "activity at 10 µM", "setting": "[9]", "value": "74.8 ± 2.2", "unit": "%"},
      {"measurement": "activity at 10 µM", "setting": "[10]", "value": "83.2 ± 1.4", "unit": "%"},
      {"measurement": "activity at 10 µM", "setting": "[11]", "value": "84.2 ± 0.1", "unit": "%"},
      {"measurement": "activity at 10 µM", "setting": "[12]", "value": "88 ± 0.7", "unit": "%"},
      {"measurement": "activity at 10 µM", "setting": "[13]", "value": "96.5 ± 0.4", "unit": "%"},
      {"measurement": "activity at 10 µM", "setting": "[14]", "value": "109.3 ± 0.4", "unit": "%"},
      {"measurement": "activity at 10 µM", "setting": "[15]", "value": "75.2 ± 1.8", "unit": "%"},
      {"measurement": "activity at 10 µM", "setting": "[16]", "value": "96.2 ± 0.3", "unit": "%"},
      {"measurement": "activity at 10 µM", "setting": "[17]", "value": "78.3 ± 3.4", "unit": "%"},
      {"measurement": "activity at 10 µM", "setting": "[18]", "value": "104 ± 2.4", "unit": "%"},
      {"measurement": "activity at 10 µM", "setting": "[19]", "value": "89.6 ± 0.4", "unit": "%"},
      {"measurement": "activity at 10 µM", "setting": "[20]", "value": "101.5 ± 0.4", "unit": "%"},
      {"measurement": "activity at 10 µM", "setting": "[21]", "value": "70.2 ± 3.3", "unit": "%"},
      {"measurement": "activity at 10 µM", "setting": "[22]", "value": "100.7 ± 0.4", "unit": "%"},
      {"measurement": "activity at 10 µM", "setting": "[23]", "value": "101.3 ± 0.6", "unit": "%"},
      {"measurement": "activity at 10 µM", "setting": "[24]", "value": "101.2 ± 0.3", "unit": "%"},
      {"measurement": "activity at 10 µM", "setting": "[25]", "value": "82.8 ± 2.2", "unit": "%"},
      {"measurement": "activity at 10 µM", "setting": "[26]", "value": "93.4 ± 0.3", "unit": "%"},
      {"measurement": "activity at 10 µM", "setting": "[27]", "value": 84.2, "unit": "%"},
      {"measurement": "activity at 10 µM", "setting": "[28]", "value": "93.4 ± 0.2", "unit": "%"},
      {"measurement": "activity at 10 µM", "setting": "[29]", "value": "97.4 ± 0.8", "unit": "%"},
      {"measurement": "activity at 10 µM", "setting": "[30]", "value": "80.4 ± 2.1", "unit": "%"},
      {"measurement": "activity at 10 µM", "setting": "[31]; CDK9/CYCLIN K", "value": "88.6 ± 0.7", "unit": "%"},
      {"measurement": "activity at 10 µM", "setting": "[31]; CDK9/CYCLIN T1", "value": "81.5 ± 1.5", "unit": "%"},
      {"measurement": "activity at 10 µM", "setting": "[31]; CDK9/CYCLIN T2", "value": "84.5 ± 0.4", "unit": "%"},
      {"measurement": "activity at 10 µM", "setting": "[32]", "value": "84 ± 0.9", "unit": "%"},
      {"measurement": "activity at 10 µM", "setting": "[33]", "value": "66.7 ± 0.1", "unit": "%"},
      {"measurement": "activity at 10 µM", "setting": "[34]", "value": "96.7 ± 0.2", "unit": "%"},
      {"measurement": "activity at 10 µM", "setting": "[35]", "value": "64.7 ± 1.1", "unit": "%"},
      {"measurement": "activity at 10 µM", "setting": "[36]", "value": "95.8 ± 0.2", "unit": "%"}
    ]}
  ]
}
